# Patent publication US5994334A, “Androgen synthesis inhibitors” (priority 1997, dated 1999)
# Target: T1, Human Testicular 17α-Hydroxylase (Homo sapiens, UniProt P05093)
# T1 construct: incubating human testicular microsomes; from tissue; host or cells: human testis, microsomes
# T1 sequence (P05093 1-508): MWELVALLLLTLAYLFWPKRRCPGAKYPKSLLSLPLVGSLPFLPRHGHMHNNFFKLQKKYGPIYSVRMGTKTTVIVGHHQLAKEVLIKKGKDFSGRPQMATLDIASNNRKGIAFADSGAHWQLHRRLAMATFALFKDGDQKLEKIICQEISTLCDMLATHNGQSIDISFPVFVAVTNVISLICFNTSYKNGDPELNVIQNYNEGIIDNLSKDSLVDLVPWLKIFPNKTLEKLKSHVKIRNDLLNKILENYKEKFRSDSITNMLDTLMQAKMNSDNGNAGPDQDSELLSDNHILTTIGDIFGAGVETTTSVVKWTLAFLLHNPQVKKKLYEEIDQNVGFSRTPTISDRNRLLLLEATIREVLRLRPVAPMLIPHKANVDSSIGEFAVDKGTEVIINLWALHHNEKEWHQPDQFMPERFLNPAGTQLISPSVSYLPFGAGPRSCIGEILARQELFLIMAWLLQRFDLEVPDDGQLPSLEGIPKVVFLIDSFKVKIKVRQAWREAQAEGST
# Test: Inhibition of human testicular 17α-hydroxylase (pregnenolone substrate, testicular microsomes)
# Assay type: biochemical
# Conditions: 100 nM; first figure of pair; read-out: % Inhibition 17α-hydroxylase, [I] = 100 nM
# Procedure: (§1) The conversion of radiolabeled pregnenolone to 17α-hydroxypregnenolone and DHEA by 17α-hydroxylase/C17,20 -lyase was measured by incubating human testicular microsomes with different concentration of test compounds. Reverse phase HPLC was used to separate and accurately quantify the amount of substrate and metabolites. The 17α-hydroxylase and C17,20 -lyase activities were calculated separately. The activity of 17α-hydroxylase was calculated from the conversion of pregnenolone to 17α-hydroxypregnenolone and DHEA and the activity of C17,20 -lyase was based on the conversion of pregnenolone to DHEA. Although 17α-hydroxypregnenolone is the substrate converted to DHEA by C17,20 -lyase, it has been reported that this 17α-hydroxy intermediate is not released from the enzyme binding site during conversion (Nakajin et al., 1981a,b). Also, there are species differences in substrate requirements. Pregnenolone is the natural substrate rather than progesterone for human testicular 17α-hydroxylase and C17,20 -lyase. Therefore, pregnenolone was used as substrate for measuring the activity of this enzyme complex.
row,Compound,inhibition at 0.1 µM [%]
1,C[C@]12CC[C@H]3[C@@H](CCC4=CC(=O)CC[C@@]43C)[C@@H]1CC[C@@H]2c1ncc[nH]1 [Compound L-3],20.3
2,"C[C@]12CC[C@H]3[C@@H](CC[C@]45CC(=O)C=C[C@]34C5)[C@@H]1CCC2=O [Compound L-15, 5,19β-cycloandrost-1-ene-3,17-dione]",7.25
3,C[C@]12CC[C@H]3[C@@H](CC=C4C[C@@H](O)CC[C@@]43C)[C@@H]1CC[C@@H]2c1c[nH]c(-c2ccccc2)n1 [Compound L-7],10.3

# Same assay, conditions: 400 nM; first figure of pair; read-out: % Inhibition 17α-hydroxylase, [I] = 400 nM
row,Compound,inhibition at 0.4 µM [%]
1,C[C@]12CC[C@H]3[C@@H](CCC4=CC(=O)CC[C@@]43C)[C@@H]1CC[C@@H]2c1ncc[nH]1 [Compound L-3],43.5
2,C[C@]12CC[C@H]3[C@@H](CC=C4C[C@@H](O)CC[C@@]43C)[C@@H]1CC[C@@H]2c1c[nH]c(-c2ccccc2)n1 [Compound L-7],20.9

# Same assay, conditions: IC50 17α-OHase
row,Compound,IC50 [nM]
1,C[C@H](O)[C@H]1CC[C@H]2[C@@H]3CC=C4C[C@@H](O)CC[C@]4(C)[C@H]3CC[C@]12C [Compound I-19],720

# Same assay, conditions: Table 1; NI = no inhibition; read-out: IC50 17α-OHase
row,Compound,IC50 [nM]
1,CC(=O)[C@@]12O[C@@H]1C[C@H]1[C@@H]3CCC4=CC(=O)CC[C@]4(C)[C@H]3CC[C@@]12C [Compound I-18],480
2,C[C@H](C=O)[C@H]1CC[C@H]2[C@@H]3CC=C4C[C@@H](O)CC[C@]4(C)[C@H]3CC[C@]12C [Compound I-31],80
3,C[C@]12CC[C@H](O)CC1=CC[C@@H]1[C@@H]2CC[C@@]2(C)[C@H]1C[C@H]1O[C@]12c1c[nH]cn1 [Compound I-51],430
4,C[C@]12CCC(=O)C=C1CC[C@@H]1[C@@H]2CC[C@@]2(C)[C@H]1CC[C@]2(O)c1c[nH]cn1 [Compound I-44],1200
5,CN(C=O)[C@H]1CC[C@H]2[C@@H]3CC=C4C[C@@H](O)CC[C@]4(C)[C@H]3CC[C@]12C [Compound I-39],290
6,CN(C)N=C1CC[C@H]2[C@@H]3CC=C4C[C@@H](O)CC[C@]4(C)[C@H]3CC[C@]12C [Compound I-56],4200
7,CCOC(=O)C1=CC[C@H]2[C@@H]3CC=C4C[C@@H](O)CC[C@]4(C)[C@H]3CC[C@]12C [Compound I-53],3040

# Same assay, conditions: first figure of pair; read-out: IC50 17α-hydroxylase
row,Compound,IC50 [nM]
1,C[C@]12CC[C@H](O)CC1=CC[C@@H]1[C@@H]2CC[C@@]2(C)[C@H]1C[C@H]1O[C@]12c1c[nH]cn1 [Compound I-51],431
2,C[C@]12CCC(=O)C=C1CC[C@@H]1[C@@H]2CC[C@@]2(C)[C@H]1CC[C@]2(O)c1c[nH]cn1 [Compound I-44],1200

# Same assay, conditions: read-out: % Inhibition 17α-hydroxylase, [I] = 100 nM
row,Compound,inhibition at 0.1 µM [%]
1,CC1N[C@@]12CC[C@H]1[C@@H]3CC=C4C[C@@H](O)CC[C@]4(C)[C@H]3CC[C@@]12C (stereo partly drawn) [Compound L-21],8.47
2,CC1N[C@]12CC[C@H]1[C@@H]3CC=C4C[C@@H](O)CC[C@]4(C)[C@H]3CC[C@@]12C (stereo partly drawn) [Compound L-22],0

# Same assay, conditions: read-out: % Inhibition 17α-hydroxylase, [I] = 400 nM
row,Compound,inhibition at 0.4 µM [%]
1,CC1N[C@@]12CC[C@H]1[C@@H]3CC=C4C[C@@H](O)CC[C@]4(C)[C@H]3CC[C@@]12C (stereo partly drawn) [Compound L-21],23.7
2,CC1N[C@]12CC[C@H]1[C@@H]3CC=C4C[C@@H](O)CC[C@]4(C)[C@H]3CC[C@@]12C (stereo partly drawn) [Compound L-22],0

# Target: T2, Human Testicular C17,20-lyase (Homo sapiens, UniProt P05093)
# T2 construct: incubating human testicular microsomes; from tissue; host or cells: human testis, microsomes
# T2 sequence (P05093 1-508): T1 sequence (P05093 1-508)
# Test: Inhibition of human testicular C17,20-lyase (pregnenolone substrate, testicular microsomes)
# Assay type: biochemical
# Conditions: 100 nM; second figure of pair; read-out: % Inhibition C17,20-lyase, [I] = 100 nM
# Procedure: as §1
row,Compound,inhibition at 0.1 µM [%]
1,C[C@]12CC[C@H]3[C@@H](CCC4=CC(=O)CC[C@@]43C)[C@@H]1CC[C@@H]2c1ncc[nH]1 [Compound L-3],62.9
2,"C[C@]12CC[C@H]3[C@@H](CC[C@]45CC(=O)C=C[C@]34C5)[C@@H]1CCC2=O [Compound L-15, 5,19β-cycloandrost-1-ene-3,17-dione]",28.8
3,C[C@]12CC[C@H]3[C@@H](CC=C4C[C@@H](O)CC[C@@]43C)[C@@H]1CC[C@@H]2c1c[nH]c(-c2ccccc2)n1 [Compound L-7],9.5

# Same assay, conditions: 400 nM; second figure of pair; read-out: % Inhibition C17,20-lyase, [I] = 400 nM
row,Compound,inhibition at 0.4 µM [%]
1,C[C@]12CC[C@H]3[C@@H](CCC4=CC(=O)CC[C@@]43C)[C@@H]1CC[C@@H]2c1ncc[nH]1 [Compound L-3],100
2,C[C@]12CC[C@H]3[C@@H](CC=C4C[C@@H](O)CC[C@@]43C)[C@@H]1CC[C@@H]2c1c[nH]c(-c2ccccc2)n1 [Compound L-7],33.8

# Same assay, conditions: IC50 C17,20 lyase
row,Compound,IC50 [nM]
1,C[C@H](O)[C@H]1CC[C@H]2[C@@H]3CC=C4C[C@@H](O)CC[C@]4(C)[C@H]3CC[C@]12C [Compound I-19],510

# Same assay, conditions: Table 1; NI = no inhibition; CI = complete inhibition; read-out: IC50 C17,20 lyase
row,Compound,IC50 [nM]
1,CC(=O)[C@@]12O[C@@H]1C[C@H]1[C@@H]3CCC4=CC(=O)CC[C@]4(C)[C@H]3CC[C@@]12C [Compound I-18],800
2,C[C@H](C=O)[C@H]1CC[C@H]2[C@@H]3CC=C4C[C@@H](O)CC[C@]4(C)[C@H]3CC[C@]12C [Compound I-31],80
3,C[C@]12CC[C@H](O)CC1=CC[C@@H]1[C@@H]2CC[C@@]2(C)[C@H]1C[C@H]1O[C@]12c1c[nH]cn1 [Compound I-51],100
4,C[C@]12CCC(=O)C=C1CC[C@@H]1[C@@H]2CC[C@@]2(C)[C@H]1CC[C@]2(O)c1c[nH]cn1 [Compound I-44],1000
5,CN(C=O)[C@H]1CC[C@H]2[C@@H]3CC=C4C[C@@H](O)CC[C@]4(C)[C@H]3CC[C@]12C [Compound I-39],280
6,CN(C)N=C1CC[C@H]2[C@@H]3CC=C4C[C@@H](O)CC[C@]4(C)[C@H]3CC[C@]12C [Compound I-56],2400
7,CCOC(=O)C1=CC[C@H]2[C@@H]3CC=C4C[C@@H](O)CC[C@]4(C)[C@H]3CC[C@]12C [Compound I-53],2450

# Same assay, conditions: read-out: % Inhibition C17,20-lyase, [I] = 100 nM
row,Compound,inhibition at 0.1 µM [%]
1,CC1N[C@@]12CC[C@H]1[C@@H]3CC=C4C[C@@H](O)CC[C@]4(C)[C@H]3CC[C@@]12C (stereo partly drawn) [Compound L-21],29.1
2,CC1N[C@]12CC[C@H]1[C@@H]3CC=C4C[C@@H](O)CC[C@]4(C)[C@H]3CC[C@@]12C (stereo partly drawn) [Compound L-22],3.33

# Same assay, conditions: read-out: % Inhibition C17,20-lyase, [I] = 400 nM
row,Compound,inhibition at 0.4 µM [%]
1,CC1N[C@@]12CC[C@H]1[C@@H]3CC=C4C[C@@H](O)CC[C@]4(C)[C@H]3CC[C@@]12C (stereo partly drawn) [Compound L-21],52
2,CC1N[C@]12CC[C@H]1[C@@H]3CC=C4C[C@@H](O)CC[C@]4(C)[C@H]3CC[C@@]12C (stereo partly drawn) [Compound L-22],9.99

# Same assay, conditions: second figure of pair; read-out: IC50 C17,20-lyase
row,Compound,IC50 [nM]
1,C[C@]12CC[C@H](O)CC1=CC[C@@H]1[C@@H]2CC[C@@]2(C)[C@H]1C[C@H]1O[C@]12c1c[nH]cn1 [Compound I-51],98
2,C[C@]12CCC(=O)C=C1CC[C@@H]1[C@@H]2CC[C@@]2(C)[C@H]1CC[C@]2(O)c1c[nH]cn1 [Compound I-44],1000

# Target: T3, Human Prostatic 5α-Reductase (Homo sapiens, UniProt P31213)
# T3 sequence (P31213 1-254): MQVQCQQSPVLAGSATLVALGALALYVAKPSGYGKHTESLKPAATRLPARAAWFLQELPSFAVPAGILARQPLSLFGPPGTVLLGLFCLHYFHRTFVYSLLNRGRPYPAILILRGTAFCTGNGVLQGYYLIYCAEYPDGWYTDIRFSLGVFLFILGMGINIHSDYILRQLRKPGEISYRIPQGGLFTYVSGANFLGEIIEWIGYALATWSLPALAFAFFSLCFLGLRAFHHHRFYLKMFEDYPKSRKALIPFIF
# Test: Inhibition of human prostatic 5α-reductase (prostatic microsomes, [3H]testosterone)
# Conditions: NI = no inhibition
# Procedure: The 5α-reductase assay is performed by incubating human prostatic microsomes (approx. 0.6 mg protein in 0.5 ml phosphate buffer) with [7-^3 H]testosterone (10 mM. 6×10^5 dpm) with a NADPH generating system (NADP 0.65 mM; glucose-6-phosphate 7.1 mM; glucose-6-phosphate dehydrogenase 2.5 IU in 100 μl phosphate buffer) and candidate inhibitors at concentrations of 10 nM and 100 nM under oxygen for 30 min at 37° C. […] The steroids are extracted with ether and separated by chromatography on TLC (chloroform:ether 80:20). […] The steroids are scraped from the plate and radioactivity measured.
row,Compound,inhibition of 5α-reductase (in words)
1,C[C@H](O)[C@H]1CC[C@H]2[C@@H]3CC=C4C[C@@H](O)CC[C@]4(C)[C@H]3CC[C@]12C [Compound I-19],neither showed activity against 5α-reductase

# Same assay, conditions: read-out: % Inhibition of 5α-reductase, [I] 10 nM
row,Compound,inhibition at 0.01 µM [%]
1,CC(=O)[C@@]12O[C@@H]1C[C@H]1[C@@H]3CCC4=CC(=O)CC[C@]4(C)[C@H]3CC[C@@]12C [Compound I-18],15.1

# Same assay, conditions: read-out: % Inhibition of 5α-reductase, [I] 100 nM
row,Compound,inhibition at 0.1 µM [%]
1,CC(=O)[C@@]12O[C@@H]1C[C@H]1[C@@H]3CCC4=CC(=O)CC[C@]4(C)[C@H]3CC[C@@]12C [Compound I-18],76.2
2,C[C@]12CC[C@H]3[C@@H](CCC4=CC(=O)CC[C@@]43C)[C@@H]1CC[C@@H]2c1ncc[nH]1 [Compound L-3],31.7
3,"C[C@]12CC[C@H]3[C@@H](CC[C@]45CC(=O)C=C[C@]34C5)[C@@H]1CCC2=O [Compound L-15, 5,19β-cycloandrost-1-ene-3,17-dione]",23.3

# Same assay, conditions: read-out: % Inhibition of 5α-reductase, [I] 400 nM
row,Compound,inhibition at 0.4 µM [%]
1,C[C@]12CC[C@H]3[C@@H](CCC4=CC(=O)CC[C@@]43C)[C@@H]1CC[C@@H]2c1ncc[nH]1 [Compound L-3],61.7
2,"C[C@]12CC[C@H]3[C@@H](CC[C@]45CC(=O)C=C[C@]34C5)[C@@H]1CCC2=O [Compound L-15, 5,19β-cycloandrost-1-ene-3,17-dione]",60.9
